For 96 compounds, CC50 results are on record in PubChem BioAssay AID464 (The Scripps Research Institute Molecular Screening Center, 2006).

The structures appear in SMILES notation. The source made the active and inactive calls.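 How the source made its calls: active means Compounds that kill half the cells at a concentration of 5 micromolar or below, from the fitted or estimated CC50; inactive means CC50 above 5 micromolar.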

The subject of the test is Jurkat E6.1 viability, ATP luminescence, 48 h. The test can be described thus: Jurkat E6.1 cell cytotoxicity, CC50 determination, dose response, cytotoxicity control, ATP luminescence, 48 h, 60K MLSMR (AID 464).
For orientation: CC50 means the concentration at which the toxic effect on the cells reaches its halfway point. As for `O=S1(=O)C=C(Sc2nc3cc(Cl)ccc3o2)c2ccccc21`, the CC50 was 9.93 µM (inactive).

On to `CCCNc1nc2c(c(=O)n(C)c(=O)n2C)n1Cc1cccc(C)c1`, for which the CC50 is 10.8 µM (inactive). The result for `COC(=O)c1sc(N)c(C(=O)OC)c1COC(=O)c1c(C)noc1C` reads 2.35 µM. The same measure for `CCCCCCn1c(NCC)nc2c1c(=O)n(C)c(=O)n2C`: 2.83 µM. With `O=C(c1ccc(F)cc1)C(CN1CCOCC1)c1ccccc1` (stereo unspecified), the CC50 was 5.53 µM (inactive). The same measure for `CCn1c2ccccc2c2cc(Nc3cc(C)nc4ncnn34)ccc21`: 0.109 µM; for `O=C1N/C(=C\c2ccccc2)c2ccccc21`: > 4.4 µM (inactive). The result for `CSCc1nnc(NC(=O)c2ccc(S(=O)(=O)N(CC(C)C)CC(C)C)cc2)o1` reads 21.1 µM (inactive); that for `COc1cc(NC(=O)c2cc(-c3cccs3)on2)cc(OC)c1OC`, 12.8 µM (inactive); that for `CC(=O)CC1OC(=O)C(Br)=C1NCc1ccccc1` (stereo unspecified), 3.91 µM.

Consider `CNC(=O)N(C1=NCC(C)(C)S1)c1ccc(F)c(Cl)c1`, for which the CC50 is 10.4 µM (inactive). The result for `Oc1ccc(-c2nc(-c3ccc(O)c(O)c3)cs2)cc1` reads 0.167 µM; that for `O=S(=O)(Nc1cccc2ncccc12)c1cccs1`, 6.36 µM (inactive); that for `COc1cc(C)c(Cl)cc1S(=O)(=O)NCc1ccncc1`, 3.1 µM. The same measure for `CCOC(=O)c1ccc(NC(=O)c2ccc(CN3CCOCC3)cc2)cc1`: 5.13 µM (inactive).

Consider `Cc1ccc2c(c1)[nH]c1c(N3CCN(Cc4ccccc4)CC3)ncnc12`, for which the CC50 is > 40 µM (inactive).

As for `COc1ccc(C(=O)CSc2nnc(Cn3cnc4ccccc43)o2)cc1`, the CC50 was 2.6 µM. The result for `COCCOC(=O)c1[nH]c2c(c1C)C(=O)CC(c1ccco1)C2` (stereo unspecified) reads 0.945 µM; that for `CCn1nc(-c2cccs2)nc2c(=O)n(C)c(=O)nc1-2`, > 40 µM (inactive); that for `COc1ccc(Cn2c(=O)oc3ccc(C)cc32)cc1OC`, 13.1 µM (inactive). With `Cn1c(=O)n(C)c2cc(NS(=O)(=O)c3ccc4c(c3)CCCC4)ccc21`, the CC50 was 8.18 µM (inactive). As for `COc1ccccc1C1C=C(c2ccc(C)cc2)Nc2nnnn21` (stereo unspecified), the CC50 is > 40 µM (inactive). The same measure for `COc1ccc(OC)c(C(C)NC(=O)c2ccco2)c1` (stereo unspecified): 6.24 µM (inactive); for `CNc1nc2c(c(=O)n(C)c(=O)n2C)n1Cc1ccccc1`: 7.54 µM (inactive).

Consider `CN(C)c1ccc(C2C=C(c3ccc(Cl)cc3OC(F)F)Nc3ncnn32)cc1` (stereo unspecified), for which the CC50 was 3.56 µM. Take `Cc1cc(NC(=O)COc2cccc(Oc3ccccc3)c2)no1`: the CC50 was 8.94 µM (inactive).

As for `Nc1ccc(N2CCCCCC2)cc1`, the CC50 is 26.3 µM (inactive). The same measure for `CC(=O)c1ccc(Oc2cc(C)nc(-n3nc(C)cc3C)n2)cc1`: 0.293 µM; for `C=C(C)COc1ccc(-c2[nH]ncc2-c2ccc(OC)c(OC)c2)c(O)c1`: 0.782 µM. The result for `Nc1nc(-c2ccccc2)cc(N2CCCCC2)n1` reads 0.877 µM; that for `Cn1cc(/C=N/n2cnc3scc(-c4ccccc4)c3c2=O)c2ccccc21`, 1.1 µM. The result for `CS(=O)c1nc(-c2ccc(Br)cc2)cc(-c2ccccc2)c1C#N` (stereo unspecified) reads 0.631 µM; that for `O=C1CCCN1c1ccc(S(=O)(=O)Nc2ccc3c(c2)OCCO3)cc1`, 1.78 µM; that for `Cc1ccc(C(=O)CCNc2ccc(F)c(Cl)c2)o1`, 6.26 µM (inactive).

For the compound `O=C(Nc1ccc(N2CCCC2)cc1)c1cccc(F)c1`, the CC50 was 8.17 µM (inactive). The same measure for `O=C(Cn1cnc2c(cnn2-c2ccc(F)cc2)c1=O)NCc1ccco1`: > 4.4 µM (inactive); for `O=S(=O)(NCc1ccncc1)c1ccc(Br)s1`: 1 µM; for `O=S1(=O)C=C(Sc2nnc(-c3ccccc3)o2)c2ccccc21`: > 13 µM (inactive). The result for `COc1cc(C(=O)N2CCN(c3cccc(C)c3C)CC2)cc(OC)c1OC` reads 0.37 µM; that for `C=CS(=O)(=O)c1ccc(Oc2ccc(S(=O)(=O)C=C)cc2)cc1`, 1.9 µM; that for `COc1cccc2sc(Nc3nnc(-c4cccs4)o3)nc12`, 10.6 µM (inactive). The result for `Cc1cc(C)cc(NS(=O)(=O)c2ccc3[nH]cc(C(=O)NCc4ccco4)c(=O)c3c2)c1` reads 5.48 µM (inactive); that for `O=C(NCc1ccccc1)c1noc2c1CCCC2`, 8.77 µM (inactive). In the case of `O=C(Nc1ccc(N2CCOCC2)cc1)Nc1ccc2nc(-c3ccco3)c(-c3ccco3)nc2c1`, the CC50 is 10.4 µM (inactive). The same measure for `O=C1C2C3C=CC(CO)(O3)C2C(=O)N1c1ccccc1-c1ccccc1` (stereo unspecified): 6.29 µM (inactive). The same measure for `Cc1ccc2c(c1)nnn2C1CCN(S(=O)(=O)c2ccc(C(=O)N3C(C)CCCC3C)cc2)CC1` (stereo unspecified): 9.39 µM (inactive). For `CC(=O)c1c(C)[nH]c(C(=O)OCCCCN2C(=O)c3ccccc3C2=O)c1C`, the CC50 was > 40 µM (inactive). On to `CCCCOc1ncnc2c1[nH]c1ccc(F)cc12`, for which the CC50 is > 40 µM (inactive). The same measure for `COc1cccc(-c2cc(C(=O)Nc3cc(OC)c(OC)c(OC)c3)no2)c1`: 8.79 µM (inactive); for `Cc1cc(NC(=O)CCS(=O)(=O)c2nc(-c3ccccc3)cc(C(F)(F)F)n2)no1`: 5.13 µM (inactive).

With `CCOc1ccc(Cl)cc1S(=O)(=O)n1cnc2ccccc21`, the CC50 is 14.8 µM (inactive). The result for `COC(=O)C1=C(C)N(c2ccc(Cl)c(Cl)c2)C(=O)C1` reads 5.37 µM (inactive); that for `COc1cc(C2Nc3ccc4ncccc4c3C3=C2C(=O)CCC3)cc(OC)c1O` (stereo unspecified), 6.15 µM (inactive).

Turning to `Oc1c(C(Nc2nc3ccccc3s2)c2ccco2)ccc2cccnc12` (stereo unspecified), the CC50 is 7.79 µM (inactive). The same measure for `COc1cccc(OCc2nc3ncc(Br)cc3[nH]2)c1`: 1.11 µM. The same measure for `COCc1cc(CN2CCCC2)c(O)c2ncccc12`: > 13 µM (inactive). The same measure for `Cc1nc(NC(C)c2ccccc2)c2oc3ccccc3c2n1` (stereo unspecified): 18.6 µM (inactive). With `COc1ccc(CNc2cc(C)nc3ncnn23)c(OC)c1`, the half-maximal cytotoxic concentration (CC50) is 3.25 µM. For the compound `CCC(C)Oc1ccccc1C1CC(=O)NC2=C1C(=O)CCC2` (stereo unspecified), the CC50 is 4.73 µM.

Turning to `N#CC1=C(N)Oc2cc(N)ccc2C1C1CCCCC1` (stereo unspecified), the CC50 was 2.49 µM.

As for `CCOC(=O)c1oc2ccc(S(=O)(=O)Nc3ccc4c(c3)n(C)c(=O)n4C)cc2c1C`, the CC50 was 11.3 µM (inactive). The result for `COc1ccc(NC(=O)c2cnc(C)cn2)c2ncccc12` reads 5.63 µM (inactive). The same measure for `Cc1ccc(S(=O)(=O)Nc2cccc3ncccc23)s1`: 10.3 µM (inactive).

Take `Cc1c(C(=O)N2CCOCC2)[nH]c2c1C(=O)CC(c1ccccc1Cl)C2` (stereo unspecified): the CC50 was 1.6 µM. The same measure for `COc1cc(-c2nnc3n2N=C(c2ccccc2)CS3)cc(OC)c1OC`: 0.392 µM; for `CCOC(=O)c1[nH]c2c(c1C)C(=O)CC(c1ccc(F)cc1)C2` (stereo unspecified): 0.708 µM; for `O=C(Cn1cnc2c(cnn2-c2ccccc2)c1=O)NCc1ccccc1`: 9.12 µM (inactive).

`CC(=O)NC(c1ccco1)c1ccc2cccnc2c1O` (stereo unspecified): the CC50 is 3.65 µM.

For `CCCC(=O)Nc1nc2ccc(S(=O)(=O)N3CCCCC3)cc2s1`, the CC50 was 2.82 µM. The result for `COc1cc(C(Nc2ccccn2)c2ccc3ccc(C)nc3c2O)cc(OC)c1O` (stereo unspecified) reads 6.78 µM (inactive); that for `CCOc1ccc2nc(NC(=O)c3ccoc3C)sc2c1`, 12.6 µM (inactive); that for `Cc1ccccc1OCC(=O)Nc1ccc(N2CCN(C(=O)C(C)C)CC2)c(Cl)c1`, > 40 µM (inactive). On to `Oc1ccc(Cl)cc1CNc1ccc(Br)cn1`, for which the CC50 was > 40 µM (inactive). The result for `COc1ccc(OC)c(Nc2cc(-c3ccccc3)nc(N)n2)c1` reads 0.699 µM; that for `COc1ccc(-c2nnnn2-c2ccccc2OC)cc1`, 8.67 µM (inactive); that for `O=C(NCCSc1c[nH]c2ccccc12)c1ccc(Br)o1`, > 40 µM (inactive).

Consider `CCSc1nnc(NC(=O)c2ccccn2)s1`, for which the CC50 is 8.3 µM (inactive). The same measure for `O=C(Cc1cccs1)Nc1nc2c(s1)CCCC2`: > 40 µM (inactive); for `Cc1cc(N2CCN(C/C=C/c3ccccc3)CC2)n2ncnc2n1`: > 40 µM (inactive). The same measure for `O=C(Nc1nnc(-c2cccs2)o1)c1cccc(C(F)(F)F)c1`: 25.7 µM (inactive); for `Cc1cccc(-n2ncc3c(NCc4ccccc4)ncnc32)c1`: 3.86 µM. The result for `COc1ccc(-c2nnc(NC(=O)c3ccccc3C)o2)cc1` reads > 40 µM (inactive); that for `COC(=O)c1ccc(NC(=O)c2ccc(N(C)S(C)(=O)=O)cc2)cc1`, 11.9 µM (inactive); that for `Cc1nnc(Sc2nc(Sc3nnc(C)s3)nc(N3CCN(C)CC3)n2)s1`, 1.34 µM.

For the compound `CCCCN(CC)S(=O)(=O)c1ccc(C(=O)Nc2nnc(-c3cccs3)o2)cc1`, the CC50 is 13.9 µM (inactive). Take `Oc1c(CN2CCCCC2)cc(COCc2ccccc2)c2cccnc12`: the CC50 was 3.31 µM.

Regarding `Cc1ccsc1C(=O)Nc1nnc(-c2ccco2)o1`, the CC50 was 24.2 µM (inactive). The result for `CSc1nnc2c3ccccc3n(CCc3ccccc3)c2n1` reads 16.9 µM (inactive); that for `Cc1cc(C(=O)OCC(=O)NCc2ccco2)c(C)n1-c1ccc(F)cc1`, 2.34 µM. With `CCCc1ccc(-c2ccc(F)c(N)c2)nc1`, the CC50 is > 40 µM (inactive).

Consider `COc1ccccc1-c1nnc2sc(-c3ccc(N(C)C)cc3)nn12`, for which the CC50 was 0.0343 µM.

For the compound `CCCCCOC(=O)c1[nH]c2c(c1C)C(=O)CC(c1ccco1)C2` (stereo unspecified), the CC50 was 0.084 µM. For the compound `Cc1c(C(=O)OCC(C)C)[nH]c2c1C(=O)CC(c1ccco1)C2` (stereo unspecified), the CC50 is 0.462 µM. The result for `Cc1cc(NC(=O)CSc2nc(-c3ccco3)cc(C(F)(F)F)n2)no1` reads 0.233 µM; that for `NS(=O)(=O)c1ccc(CCNc2ncnc3sccc23)cc1`, 3.37 µM; that for `N#CC(C#N)=c1ccc2c(c1)NC1(CCCCC1)N=2`, 8.08 µM (inactive).
